Consider 16 compounds from ChEMBL document CHEMBL1201862, “PubChem BioAssay data set” (2004).

Calls of active or inactive are those of the source.

One assay deals with T1, fMet-Leu-Phe receptor (Homo sapiens, UniProt P21462).
T1 sequence (P21462 whole entry): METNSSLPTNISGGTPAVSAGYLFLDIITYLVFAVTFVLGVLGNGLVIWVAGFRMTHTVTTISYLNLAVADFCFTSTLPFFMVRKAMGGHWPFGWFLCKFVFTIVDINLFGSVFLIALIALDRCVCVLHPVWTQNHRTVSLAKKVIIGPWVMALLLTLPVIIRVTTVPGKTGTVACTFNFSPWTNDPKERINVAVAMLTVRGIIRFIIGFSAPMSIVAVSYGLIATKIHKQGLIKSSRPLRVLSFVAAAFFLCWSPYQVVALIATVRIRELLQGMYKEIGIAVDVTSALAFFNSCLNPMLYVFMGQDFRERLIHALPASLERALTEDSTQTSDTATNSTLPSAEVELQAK
Nature of the assay: FPR ligands, dose response (AID 519). In kind it is functional.

The nature of assay [1]: cells.
Assay [2] addresses T2, Oxysterols receptor LXR-beta (Homo sapiens, UniProt P55055).
T2 sequence (P55055 whole entry): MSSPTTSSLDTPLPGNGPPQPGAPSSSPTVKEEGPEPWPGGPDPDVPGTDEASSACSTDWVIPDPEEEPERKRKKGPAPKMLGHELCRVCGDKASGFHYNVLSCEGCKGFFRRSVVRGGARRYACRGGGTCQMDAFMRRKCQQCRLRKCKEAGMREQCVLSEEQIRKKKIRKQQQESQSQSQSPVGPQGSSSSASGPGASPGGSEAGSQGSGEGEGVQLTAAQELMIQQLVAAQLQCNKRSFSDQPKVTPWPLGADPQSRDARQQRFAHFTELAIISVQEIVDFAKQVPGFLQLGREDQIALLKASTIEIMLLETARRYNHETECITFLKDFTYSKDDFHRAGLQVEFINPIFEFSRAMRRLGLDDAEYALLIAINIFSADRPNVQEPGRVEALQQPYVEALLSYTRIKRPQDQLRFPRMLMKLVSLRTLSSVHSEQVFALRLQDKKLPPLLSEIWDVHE
In kind it is functional, cell-based.

In a further assay the test system is H4. In words: Luminescence Cell-Based Dose Response HTS to Identify Activators of 5'UTR Stem-Loop Driven Prion Protein mRNA Translation in H4 Neuroglioblastoma Cells. [Related pubchem assays: 1829 (Project Summary), 1814 (Primary HTS)]. Type of assay: functional. Conditions: Homo sapiens.
Assay [3] addresses T3, Trace amine-associated receptor 1 (Homo sapiens, UniProt Q96RJ0).
T3 sequence (Q96RJ0 whole entry): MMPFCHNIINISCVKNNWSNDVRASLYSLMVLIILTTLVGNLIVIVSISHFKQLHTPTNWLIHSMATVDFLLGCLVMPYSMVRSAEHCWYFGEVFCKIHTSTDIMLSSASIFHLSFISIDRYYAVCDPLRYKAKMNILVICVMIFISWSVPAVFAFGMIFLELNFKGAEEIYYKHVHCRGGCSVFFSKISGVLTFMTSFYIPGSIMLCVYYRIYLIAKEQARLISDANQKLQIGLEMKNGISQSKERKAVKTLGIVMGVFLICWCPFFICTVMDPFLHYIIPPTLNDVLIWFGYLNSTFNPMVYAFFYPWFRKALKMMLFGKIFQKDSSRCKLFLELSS
Nature of the assay: Fluorescence-based cell-based high throughput dose response assay to identify agonists of the human trace amine associated receptor 1 (TAAR1). Type of assay: functional.

The nature of assay [4]: cells. In kind it is functional, cell-based.
Assay [5] concerns the target T3, Trace amine-associated receptor 1. In words: Counterscreen for agonists of the human trace amine associated receptor 1 (hTAAR1): Fluorescence-based cell-based high throughput dose response assay to identify hTAAR1 agonist that also desensitize TAAR1 receptor response. In kind it is functional. For orientation: A counterscreen serves to expose hits that act by an unwanted route or on another target.

A short description of assay [6]: cells. Type of assay: functional, cell-based. This is another data set of the same source.
Assay [7] is described as follows: Luminescence Cell-Based Dose Response HTS to Identify Activators of Luciferase Translation or Activity in H4 […] Cells. [Related pubchem assays: 1829 (Project Summary), 1814 (Primary HTS)]. Type of assay: functional.
Assay [8] can be described thus: cells. In kind it is functional, cell-based. The source holds these as a separate data set.
Assay [9] addresses T4, Nuclear receptor subfamily 0 group B member 1 (Homo sapiens, UniProt P51843).
T4 sequence (P51843 whole entry): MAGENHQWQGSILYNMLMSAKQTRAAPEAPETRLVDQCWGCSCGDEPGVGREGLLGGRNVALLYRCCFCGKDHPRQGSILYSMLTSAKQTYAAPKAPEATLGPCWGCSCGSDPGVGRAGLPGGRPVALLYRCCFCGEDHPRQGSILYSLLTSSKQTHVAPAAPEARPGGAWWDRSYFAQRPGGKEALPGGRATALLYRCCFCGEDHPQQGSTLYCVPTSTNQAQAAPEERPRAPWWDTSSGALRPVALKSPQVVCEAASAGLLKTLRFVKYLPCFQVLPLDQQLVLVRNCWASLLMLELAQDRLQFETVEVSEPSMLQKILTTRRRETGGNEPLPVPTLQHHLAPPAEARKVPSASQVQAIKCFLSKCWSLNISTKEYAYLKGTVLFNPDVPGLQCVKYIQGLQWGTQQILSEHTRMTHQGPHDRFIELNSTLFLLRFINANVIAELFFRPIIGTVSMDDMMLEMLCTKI
In kind it is functional, cell-based.

The next assay has as its target Genome polyprotein (dengue virus type 2, UniProt P29990). Nature of the assay: Dengue-2 NS5 methyltransferase inhibitors, primary screen, biochemical, confirmation dose response (AID 588689). In kind it is functional.
The target of another assay is T5, Leucine aminopeptidase (Plasmodium falciparum 3D7, UniProt Q8IL11).
T5 sequence (Q8IL11 whole entry): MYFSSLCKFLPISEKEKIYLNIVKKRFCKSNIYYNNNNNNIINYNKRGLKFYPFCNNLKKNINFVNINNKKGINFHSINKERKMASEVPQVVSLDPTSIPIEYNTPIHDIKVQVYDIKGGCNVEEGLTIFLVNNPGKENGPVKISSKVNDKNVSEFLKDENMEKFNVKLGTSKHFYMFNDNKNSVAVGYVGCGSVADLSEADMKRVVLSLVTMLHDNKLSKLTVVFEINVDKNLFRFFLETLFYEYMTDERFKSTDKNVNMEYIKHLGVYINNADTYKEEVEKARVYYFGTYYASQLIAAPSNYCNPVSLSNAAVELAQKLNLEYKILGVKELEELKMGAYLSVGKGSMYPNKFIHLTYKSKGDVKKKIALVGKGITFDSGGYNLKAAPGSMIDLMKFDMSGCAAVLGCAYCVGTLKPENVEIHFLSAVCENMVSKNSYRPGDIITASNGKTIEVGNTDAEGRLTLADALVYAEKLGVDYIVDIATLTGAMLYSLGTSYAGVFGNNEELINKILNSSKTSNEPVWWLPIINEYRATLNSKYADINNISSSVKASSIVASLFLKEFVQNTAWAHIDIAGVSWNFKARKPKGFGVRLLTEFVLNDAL
Nature of the assay: P. falciparum M17LAP inhibitors, primary screen, biochemical, fluorogenic H-Leu-NHMec substrate, 1536-well (AID 1619). Type of assay: functional.

Assay [10] concerns the target T6, Methionyl-tRNA synthetase, putative (Trypanosoma brucei brucei, UniProt Q38C91).
T6 sequence (Q38C91 whole entry): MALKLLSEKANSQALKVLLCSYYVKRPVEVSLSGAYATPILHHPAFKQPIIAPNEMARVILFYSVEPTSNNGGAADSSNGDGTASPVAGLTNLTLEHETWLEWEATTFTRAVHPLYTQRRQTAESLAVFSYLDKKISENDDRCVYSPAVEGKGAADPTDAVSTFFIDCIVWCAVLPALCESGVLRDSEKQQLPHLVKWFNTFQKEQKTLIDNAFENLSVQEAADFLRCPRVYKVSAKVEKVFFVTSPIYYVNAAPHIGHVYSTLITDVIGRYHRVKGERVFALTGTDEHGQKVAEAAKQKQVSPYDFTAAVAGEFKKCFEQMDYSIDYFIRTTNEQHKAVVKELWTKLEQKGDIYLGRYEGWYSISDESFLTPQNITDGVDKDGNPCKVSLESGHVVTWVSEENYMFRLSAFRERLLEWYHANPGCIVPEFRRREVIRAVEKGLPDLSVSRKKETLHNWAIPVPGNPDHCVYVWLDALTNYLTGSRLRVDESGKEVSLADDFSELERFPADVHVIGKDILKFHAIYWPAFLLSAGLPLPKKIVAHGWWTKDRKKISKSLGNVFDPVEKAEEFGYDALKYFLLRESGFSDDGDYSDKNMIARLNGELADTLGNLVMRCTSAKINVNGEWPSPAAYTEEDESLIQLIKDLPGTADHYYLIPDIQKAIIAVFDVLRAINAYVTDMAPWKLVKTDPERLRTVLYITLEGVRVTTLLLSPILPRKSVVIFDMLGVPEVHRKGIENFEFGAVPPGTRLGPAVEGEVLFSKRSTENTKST
In kind it is functional, Trypanosoma brucei brucei strain 927/4 GUTat10.1.

Assay [11] can be described thus: Counterscreen for inhibitors of Trypanosoma brucei methionyl tRNA synthetase (MetRS): Luminescence-based cell-based high throughput dose response assay to identify compounds that are cytotoxic to Jurkat human T lymphocyte cells. In kind it is functional.
In assay [12] the target is T6, Methionyl-tRNA synthetase, putative. Type of assay: functional, Trypanosoma brucei brucei strain 927/4 GUTat10.1. This is another data set of the same source.
The nature of assay [13]: NIH-3T3 fibroblast cytotoxicity, dose response, cytotoxicity control, cell-based, fluorescence, Alamar Blue, secondary assay (AID 2327).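 Note: NIH-3T3 mouse fibroblasts cultured with fluconazole at 8 µg/mL.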 In kind it is functional.
Assay [14] is described as follows: C. albicans growth with fluconazole, confirmation, fluorescence, retest (AID 2467). In kind it is functional, cell-based.

Chain of Genome polyprotein (P29990 2492-3391 limits assumed): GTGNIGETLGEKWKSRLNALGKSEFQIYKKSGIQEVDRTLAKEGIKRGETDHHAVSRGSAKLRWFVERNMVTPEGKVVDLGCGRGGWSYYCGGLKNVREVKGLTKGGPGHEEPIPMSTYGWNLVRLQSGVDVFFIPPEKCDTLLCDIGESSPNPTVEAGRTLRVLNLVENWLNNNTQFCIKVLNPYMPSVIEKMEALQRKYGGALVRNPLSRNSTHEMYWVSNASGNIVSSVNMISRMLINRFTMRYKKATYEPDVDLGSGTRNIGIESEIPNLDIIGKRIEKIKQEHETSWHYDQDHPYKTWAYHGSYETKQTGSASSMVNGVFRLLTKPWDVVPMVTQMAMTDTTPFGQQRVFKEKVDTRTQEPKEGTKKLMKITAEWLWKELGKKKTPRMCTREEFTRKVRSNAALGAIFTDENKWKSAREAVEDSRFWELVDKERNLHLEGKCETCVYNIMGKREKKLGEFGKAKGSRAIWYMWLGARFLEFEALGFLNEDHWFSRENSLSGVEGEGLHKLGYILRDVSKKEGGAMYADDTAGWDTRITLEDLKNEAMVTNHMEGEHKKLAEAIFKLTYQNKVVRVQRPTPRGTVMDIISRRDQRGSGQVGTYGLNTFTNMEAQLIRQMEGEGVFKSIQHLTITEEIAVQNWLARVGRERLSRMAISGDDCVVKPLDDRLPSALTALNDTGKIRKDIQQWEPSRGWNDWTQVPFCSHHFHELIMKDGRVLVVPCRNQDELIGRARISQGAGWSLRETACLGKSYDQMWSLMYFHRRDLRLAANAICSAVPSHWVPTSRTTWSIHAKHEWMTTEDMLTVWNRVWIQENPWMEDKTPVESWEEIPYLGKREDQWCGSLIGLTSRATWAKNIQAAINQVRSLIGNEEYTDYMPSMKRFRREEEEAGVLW

As usually defined, the Ki is the equilibrium dissociation constant of an inhibitor or competing ligand from its target. Turning to `CC(C)OC(=O)c1cc(NC(=O)C2C3CCC(O3)C2C(=O)O)cc(C(=O)OC(C)C)c1` (stereo unspecified), at fMet-Leu-Phe receptor, the Ki was 41.5 µM (inactive).
The EC50 is the midpoint of the concentration-response curve. Consider `O=C(NC1=NCCS1)c1sc2cc(F)ccc2c1Cl`, for which the EC50 (in the assay “cells [1]”; in [2]) was > 67.6 µM (inactive) each time.
For the compound `Clc1ccc(Cc2nn3c(-c4ccncc4)nnc3s2)cc1`, the Ki at fMet-Leu-Phe receptor was > 66.7 µM (inactive).
One may read the IC50 as the concentration that inhibits the measured activity by half. For `Cc1cc(C2=NN=C(NCCc3ccccc3)SC2)c(C)n1CC1CCCO1` (stereo unspecified), the EC50 was 13 µM (active) in the assay on H4, 0.553 µM (active) in assay [3], > 29.9 µM (inactive) in “cells [4]” and 61.9 µM (active) in assay [7]. For the same compound, the IC50 was 2.84 µM (active) in assay [5] and > 29.9 µM (inactive) in the assay “cells [6]”.
With `O=C(Nc1ccc(N2CCCC2)cc1)c1cccc(F)c1`, the IC50 (in “cells [8]”; in [9]) was > 67.5 µM (inactive) in each case.
As for `CCCC(=O)N1CCCC(c2cc(C(=O)Nc3ccc4c(c3)OCO4)no2)C1` (stereo unspecified), the IC50 (in “cells [8]”; in assay [9]) was > 67.6 µM (inactive) throughout.
On to `O=c1[nH]cnc2nc(-c3ccc(N(CCCl)CCCl)cc3)[nH]c12`, for which, in assay [9], the IC50 was > 67.6 µM (inactive).
In the case of `Oc1[nH]cnc2nc(-c3ccc(N(CCCl)CCCl)cc3)nc1-2`, the IC50 in “cells [8]” is > 67.6 µM (inactive).
As for `Cc1ccc(C2C(C(=O)c3ccc(Br)cc3)=C(O)C(=O)N2Cc2ccco2)o1` (stereo unspecified), the values for the IC50 on Genome polyprotein and on Leucine aminopeptidase were > 100 µM (active) and 66.4 µM (active), respectively. The Ki on fMet-Leu-Phe receptor was > 66.7 µM (inactive).
Take `Nc1cc(Oc2ccc(Cl)cc2Cl)nc(N)n1`: the IC50 in assay [10] is 29.4 µM (inactive); in [11], 83.2 µM (inactive); in assay [12], 22.8 µM (inactive).
Take `COC(=O)/C(=C\Nc1ccccc1)NC(=O)c1ccc(Cl)cc1Cl`: the IC50 in assay [10] is 6.89 µM (active); in assay [11], 83.3 µM (inactive); in assay [12], 2.71 µM (active).
As to `CCN1C(=O)C(CC(=O)Nc2ccc(OC)cc2)N(CCc2ccccc2)C1=S` (stereo unspecified), the IC50 in [10] is 23.5 µM (inactive); in assay [11], 38.9 µM (inactive); in [12], 15 µM (inactive).
Regarding `NC(=O)c1cccc(-c2ccnc3c2CC(C(=O)Nc2ccc(Cl)cc2)O3)c1` (stereo unspecified), the IC50 in assay [10] was 18.7 µM (inactive); in assay [11], 58.1 µM (inactive); in [12], 8.03 µM (active).
As to `COc1ccc(-c2csc(-c3ccccc3)n2)c(OC)c1`, the EC50 in assay [13] was > 160 µM (inactive); in the assay “cells [1]”, > 67.5 µM (inactive); in [2] it was > 67.5 µM (inactive); in [14], 6.64 µM (active).
`O=C(c1c(Cl)nc2sccn12)N(C(=O)c1c(Cl)nc2sccn12)c1ccc(Cl)cn1`: the EC50 (in the assay “cells [1]”; in assay [2]) was > 67.5 µM (inactive) in each case.
For `O=C(NCCc1ccccc1)C(c1ccncc1)N(C(=O)c1csnn1)C1CC1` (stereo unspecified), the EC50 in assay [3] is 2.11 µM (active); in “cells [4]” it was > 29.9 µM (inactive). In addition, the IC50 was 7.59 µM (active) in assay [5] and > 29.9 µM (inactive) in “cells [6]”.
